The nature of this data set: gradient 5% acetonitrile 3 min, to 50% in 2 min, to 85% in 15 min, held 3 min, 100 µL/min. Particulars: column: Zorbax Extend-C18 2.1 x 50 mm; eluents: water / acetonitrile, 0.1% formic acid. An outline of the steps: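 Each retention time is based on an adduct peak selected computationally and verified by manual inspection. Measurements used HPLC–quadrupole time-of-flight mass spectrometry in positive and negative ionization mode on mixtures of ~100 pure standards. Chromatography ran on a Zorbax Extend-C18 column (2.1 × 50 mm, 1.8 μm) at 100 μL/min with water and acetonitrile, each containing 0.1% formic acid, and dead and dwell volumes of 40 μL and 900 μL.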
Consider `COc1nc2ccccc2nc1N1CCCC(C(=O)Nc2cccc(F)c2)C1` (stereo not given), for which the RP-LC retention time is 1170 s. In the case of `O=C(CCc1ccc2nc(-c3ccccc3)[nH]c2c1)N1CCCCCC1` it was 642 s; in that of `CC(C)c1noc(C2CCCN(C(=O)NC(C)(C)C)CCC(=O)NCC2)n1` (stereo not given), 690 s. In the case of `O=C1CC(NC(=O)C2c3ccccc3Oc3ccccc32)CN1` (stereo not given) it was 638 s; in that of `Cc1cnc(C)n1C1CCN(S(=O)(=O)c2ccc(C#N)cc2)CC1`, 626 s. As for `Cc1cc(N2CCN(C(=O)CCc3ccccc3)CC2)nc2nncn12`, the RP-LC retention time amounted to 616 s.

In turn, `CCC(=O)N1CCc2cc(N3CC(C(=O)NCc4cccc(C)c4)CC3=O)ccc21` (stereo not given) had an RP-LC retention time of 745 s.

On to `CCOc1ccc2c(n1)CCN(C(=O)Nc1cc(C)cc(C)c1)C2`, for which the RP-LC retention time came to 912 s.

In turn, `COc1ccc(-c2nc(-c3cn(-c4ccc(C)cc4)nn3)no2)c(OC)c1` had an RP-LC retention time of 1050 s. As for `O=C(NCc1ccc(Cl)cc1)C1CCN(c2ccc(SCc3ccccc3)nn2)CC1`, the RP-LC retention time was 824 s. For `CCC(C)C(NC(=O)c1ccccc1)C(=O)Nc1nc2ccccc2[nH]1` (stereo not given), the RP-LC retention time was found to be 718 s. In turn, `COc1ccc(-c2cc3c(=O)n(Cc4nc(-c5ccc(OC)cc5)oc4C)ccn3n2)cc1` registered an RP-LC retention time of 1070 s. `CN1CCCn2nc(C3CCN(C(=O)Nc4ccc(F)cc4)CC3)cc2C1=O` showed an RP-LC retention time of 669 s. Molecule `O=C(CN1CCN(Cc2ccc(F)cc2)C1=O)NCCc1ccccc1Cl` returned an RP-LC retention time of 847 s. As for `CS(=O)(=O)N(C1CCOCC1)C1CN(C(=O)Nc2ccccc2F)C1`, the RP-LC retention time came out at 670 s. `COc1ccc(-c2nnc(COc3ccc(NC(=O)c4ccsc4)cc3)o2)cc1` returned an RP-LC retention time of 892 s. On to `CC(C)N1CCN(S(=O)(=O)c2cc(-c3nnc(C4CCCC4)o3)co2)CC1`, for which the RP-LC retention time was found to be 641 s. In the case of `CC1CCN(S(=O)(=O)c2ccc(-c3nnc(C(=O)NCCCN4CCCCCC4)o3)cc2)CC1` it was 712 s.

`Nc1o[nH]c(=O)c1C1CCCCC1` yielded an RP-LC retention time of 680 s. Regarding `Cc1ccc(NC(=O)c2sc(-n3cccc3)nc2C(C)C)cc1F`, the RP-LC retention time was 1320 s.

For `Cc1ccc(F)cc1S(=O)(=O)N1CCn2c(nn(CC3CC3)c2=O)C1`, the RP-LC retention time stood at 797 s. For `CCSc1nnc(NC(=O)C2CCN(S(=O)(=O)c3cn(CC)cn3)CC2)s1`, the RP-LC retention time amounted to 715 s. `COc1ccc(OC)c(CNC(=O)C2CCCN(c3ccc(-c4ccccc4)nn3)C2)c1` (stereo not given) yielded an RP-LC retention time of 704 s. On to `O=c1c2c(CO)c(-c3ccccc3)nn2ccn1CCOc1ccccc1`, for which the RP-LC retention time worked out at 752 s. `Cc1sc(C)c(S(=O)(=O)N2CCC3(CC2)OCCO3)c1-c1cc(C(F)(F)F)on1`: the RP-LC retention time turned out to be 1110 s. The molecule `Cc1cc2[nH]c(C(=O)Nc3cccc(Cl)c3C)c(CN3CCOCC3)c2s1` gave an RP-LC retention time of 748 s. In the case of `Cc1ccc(NC(=O)c2c(C)sc3ncnc(N4CCCC(C)C4)c23)cc1` (stereo not given), the RP-LC retention time was 1220 s.

Molecule `COc1ccc(S(=O)(=O)N2CCCC2C(N)=O)cc1` (stereo not given) returned an RP-LC retention time of 593 s. As for `CC1CCN(CCNC(=O)c2nnc(-c3ccc(S(=O)(=O)N(C)C)cc3)o2)CC1`, the RP-LC retention time stood at 606 s. Take `Fc1ccc(OCCc2noc(C3CCCN3)n2)cc1` (stereo not given): the RP-LC retention time came out at 631 s. In turn, `Cc1cc(N2CCN(C)CC2)nc(N2CCN(S(=O)(=O)c3ccc(Br)cc3)CC2)n1` showed an RP-LC retention time of 580 s. Turning to `Cc1ccc(C)c(S(=O)(=O)N2CCC3(CC2)NCCN=C3NCc2ccccc2C)c1`, the RP-LC retention time is 787 s.

Molecule `CCCN(C)c1nccn2c(=O)n(CC(=O)Nc3ccc(C)c(Cl)c3)nc12` registered an RP-LC retention time of 765 s. In the case of `CCc1ccc(-c2nc3ccc(C)cn3c2CN2CCC(F)(COC)CC2)cc1` it was 642 s; in that of `Cc1ccc(NC(=O)C2CCCN(S(=O)(=O)c3c[nH]c(C(=O)N4CCCC4)c3)C2)nc1` (stereo not given), 824 s. In the case of `O=C(Cn1nc2c3cc(-c4ccc(F)cc4)nn3ccn2c1=O)NCc1ccco1` it was 796 s; in that of `CC1CS(=O)(=O)N(c2ccc(C(=O)NCCc3c[nH]c4ccccc34)c(Cl)c2)C1=O` (stereo not given), 809 s. In turn, `COc1ccccc1N1C(=O)C2ON(c3ccccc3)C(c3cccc([N+](=O)[O-])c3)C2C1=O` (stereo not given) gave an RP-LC retention time of 615 s.

As for `Cc1cccc(C(=O)Nc2cc(-c3cccs3)no2)c1`, the RP-LC retention time was found to be 1000 s. For `CC1CCN(C(=O)Cn2c(CNC(=O)c3ccco3)nc3ccccc32)CC1`, the RP-LC retention time turned out to be 650 s. For `c1cc2nnc(C3CCC3)n2nc1N1CCCC1`, the RP-LC retention time was determined as 920 s. In turn, `CCOC(=O)c1cnc2c(OC)cccc2c1NCC1COc2ccccc2O1` (stereo not given) registered an RP-LC retention time of 782 s. As to `CCCOC1CCN(C(=O)NC)CC1`, the RP-LC retention time came out at 630 s. Take `Cc1ccc(-c2noc(-c3nn(-c4ccc(C)cc4)ccc3=O)n2)cc1`: the RP-LC retention time came to 1010 s.

On to `Cc1cnc(C2CN(C3CCCCCC3)C2)n1Cc1ccccc1`, for which the RP-LC retention time stood at 588 s. Molecule `Cc1cc(C)cc(N2C(=O)C3N=NN(c4ccc(C)c(Cl)c4)C3C2=O)c1` (stereo not given) yielded an RP-LC retention time of 1170 s. Molecule `COc1ccc(CN(C)Cc2cc(=O)c3cc(C)ccc3[nH]2)cc1OC` gave an RP-LC retention time of 588 s. The molecule `O=C(Nc1ccc(Br)cc1)c1ccc(S(=O)(=O)N2CCCC2)cc1` returned an RP-LC retention time of 914 s. In turn, `Cc1c(C(=O)NC2CC2)cnn1-c1ccc(-c2nc(C(C)C)no2)cn1` yielded an RP-LC retention time of 849 s. `CCc1noc([C@@H]2CC(F)(F)CN2C(=O)c2cnc[nH]2)n1`: the RP-LC retention time amounted to 604 s. Regarding `CCOc1ccc(CCNC(=O)c2cc3sc(Cl)cc3n2C)cc1OCC`, the RP-LC retention time stood at 1110 s. `Cc1cc(C)cc(NC(=O)CN2C(=O)C(C(=O)N3CCCC3)Sc3ccccc32)c1` (stereo not given) showed an RP-LC retention time of 1070 s. `CCOc1ccc(Cc2nc(-c3cccc(-c4ccnn4C)c3)no2)cc1OCC`: the RP-LC retention time amounted to 1090 s. `COc1cc(NS(=O)(=O)c2ccc3c(c2)C(=O)N(C)c2ncccc2O3)cc(OC)c1` came in with an RP-LC retention time of 868 s.

`O=C(Nc1cc(-c2cccs2)no1)c1ccc(F)cc1` gave an RP-LC retention time of 948 s. `O=C(Nc1nccs1)C1CC(=O)N(c2n[nH]c3cccc(F)c23)C1` (stereo not given) came in with an RP-LC retention time of 650 s. Turning to `CCOC(=O)c1[nH]c(C)c(CCC(=O)Nc2ccc3c(c2)OCCO3)c1C`, the RP-LC retention time was determined as 805 s. As to `Cc1nnc2c(=O)n(CC(=O)NCc3ccc(C(F)(F)F)cc3)c3cccnc3n12`, the RP-LC retention time was determined as 728 s. As to `O=C(NCCc1csc(C2CCN(C(=O)C3CC3)CC2)n1)C1CC1`, the RP-LC retention time worked out at 640 s. As for `CCc1noc(NC(C)=O)c1-c1ccc(C)c(S(=O)(=O)Nc2cccc(C)c2)c1`, the RP-LC retention time came out at 826 s. The molecule `CS(=O)(=O)Nc1ccc(C2(C(=O)NCc3ccccc3F)CCCCC2)cc1` registered an RP-LC retention time of 904 s.

As for `O=C(NC(c1ccccc1)c1nnc(N2CCCCC2)o1)C1CCCC1` (stereo not given), the RP-LC retention time stood at 836 s.

For the molecule `Cc1nc(-c2ccc3c(c2)CCN3C(=O)c2ccc3c(c2)OCO3)cs1`, the RP-LC retention time was found to be 951 s. Regarding `COc1ccc(Cl)cc1NC(=O)NC1CCN(c2ccc(F)cc2)C1=O` (stereo not given), the RP-LC retention time was 899 s. The molecule `CCc1nc(-c2csc(S(=O)(=O)N3CCCC(C(=O)NCc4ccccn4)C3)c2)no1` (stereo not given) yielded an RP-LC retention time of 681 s. `CC(=O)N1CCc2ccccc2C1C(=O)NCc1cccc(C(F)(F)F)c1` (stereo not given) returned an RP-LC retention time of 838 s. With `CCC(C(=O)N1CCN(c2cc(C)n3c(C)nnc3n2)CC1)c1ccccc1` (stereo not given), the RP-LC retention time worked out at 650 s. As to `Cc1ccc(NC(=O)N2CCC(CCN)CC2)cc1`, the RP-LC retention time turned out to be 589 s. In the case of `COc1ccc(NC(=O)CSc2ccc(N3CCCC(C(=O)NC4CC4)C3)nn2)c(OC)c1` (stereo not given) it was 642 s; in that of `CCOc1nc2ccccc2nc1N1CCCC(C(=O)Nc2ccccc2OC)C1` (stereo not given), 1250 s. `CCN(CC)S(=O)(=O)c1ccc(Cl)c(-c2nnc(-c3ccc(OC)cc3)o2)c1`: the RP-LC retention time is 1090 s.

For the molecule `Cc1ccc(CNC(=O)c2c(-c3cccc(Br)c3)noc2C)o1`, the RP-LC retention time is 987 s. In the case of `CCn1cc(-c2nc(CC(=O)Nc3ccc(F)cc3Cl)cs2)c2cccnc21`, the RP-LC retention time was 720 s.

With `Cc1sc(NC(=O)C(F)(F)F)nc1-c1ccc2c(c1)NC(=O)C(C)O2` (stereo not given), the RP-LC retention time came out at 840 s.

The molecule `COc1ccc(-c2noc(C3CCCN3C(=O)Nc3ccccc3C)n2)cc1` (stereo not given) showed an RP-LC retention time of 983 s. `Cc1cc2nc(SCc3noc(CCC(=O)Nc4nc(-c5ccccc5)cs4)n3)[nH]c2cc1C` yielded an RP-LC retention time of 814 s.

The molecule `COCC(=O)Nc1cc2c(cc1N(C)C)n(C)c(=O)c(=O)n2C` yielded an RP-LC retention time of 606 s. On to `CCN1C(=O)Cc2cc(C(=O)NCc3ccc(Br)cc3)ccc21`, for which the RP-LC retention time was found to be 807 s. `O=C(CN1C(=O)CCCc2cc(S(=O)(=O)N3CCCC3)ccc21)Nc1cccc(Cl)c1`: the RP-LC retention time came to 890 s.

For the molecule `Cc1ccc(C)c(-n2c(-c3ccc(Cl)cc3)cn3c4c(=O)n(C)c(=O)n(C)c4nc23)c1`, the RP-LC retention time turned out to be 1110 s.
